Data: paper PMC8226672, “Trimethoxylated Halogenated Chalcones as Dual Inhibitors of MAO-B and BACE-1 for the Treatment of Neurodegenerative Disorders” (Pharmaceutics, 2021)
Values after ≈ are worked out from the molar mass of the structure shown. Read-outs that look alike come from different tables or passages of the source.

Experiments:
[1] = Parallel artificial membrane permeability assay (PAMPA) for BBB permeability
Description: (§6) The CNS bioavailability of the molecules was confirmed by a parallel artificial membrane permeability assay (PAMPA) by Di et al. [61].

[2] = target: T1, MAO-B (Homo sapiens, UniProt P27338); assay: MAO-B inhibition (recombinant enzyme, benzylamine substrate); format: biochemical; settings: for remaining activity at 10 µM: read-out: Residual Activity (%) MAO-B; for SI (selectivity index): for MAO-B as compared with MAO-A; for IC50: reference compounds after preincubation with enzymes for 30 min
T1 sequence (P27338 1-520): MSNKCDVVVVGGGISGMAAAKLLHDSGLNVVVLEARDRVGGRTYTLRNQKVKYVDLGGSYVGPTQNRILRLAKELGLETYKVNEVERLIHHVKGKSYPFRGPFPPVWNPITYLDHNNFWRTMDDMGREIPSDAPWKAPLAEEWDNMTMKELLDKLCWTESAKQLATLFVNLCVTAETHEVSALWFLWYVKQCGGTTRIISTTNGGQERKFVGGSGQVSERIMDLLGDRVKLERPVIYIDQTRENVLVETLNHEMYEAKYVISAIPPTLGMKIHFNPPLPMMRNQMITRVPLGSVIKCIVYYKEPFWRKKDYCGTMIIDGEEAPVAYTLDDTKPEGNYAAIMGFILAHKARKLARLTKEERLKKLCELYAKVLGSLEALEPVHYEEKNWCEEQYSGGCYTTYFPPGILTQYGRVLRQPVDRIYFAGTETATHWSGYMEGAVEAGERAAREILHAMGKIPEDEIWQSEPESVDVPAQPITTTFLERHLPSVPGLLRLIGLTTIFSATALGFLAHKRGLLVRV
Description: (§1) MAO events were assessed with recombinant MAO-A and MAO-B, as well as the substrates kynuramine (0.06 mM) and benzylamine (0.3 mM). […] The IC50 value of CH5 for BACE-1 was also analyzed.
(§2) The inhibitory actions of the six molecules against MAO-A, MAO-B, and BACE-1 were first tested at 10 µM. Initially, the IC50 values of the compounds for MAOs were calculated.

[3] = target: T2, recombinant MAO-A (Homo sapiens, UniProt P21397); assay: MAO-A inhibition (recombinant enzyme, kynuramine substrate); format: biochemical; settings: for remaining activity at 10 µM: read-out: Residual Activity (%) MAO-A; for IC50: reference compounds after preincubation with enzymes for 30 min
T2 sequence (P21397 1-527): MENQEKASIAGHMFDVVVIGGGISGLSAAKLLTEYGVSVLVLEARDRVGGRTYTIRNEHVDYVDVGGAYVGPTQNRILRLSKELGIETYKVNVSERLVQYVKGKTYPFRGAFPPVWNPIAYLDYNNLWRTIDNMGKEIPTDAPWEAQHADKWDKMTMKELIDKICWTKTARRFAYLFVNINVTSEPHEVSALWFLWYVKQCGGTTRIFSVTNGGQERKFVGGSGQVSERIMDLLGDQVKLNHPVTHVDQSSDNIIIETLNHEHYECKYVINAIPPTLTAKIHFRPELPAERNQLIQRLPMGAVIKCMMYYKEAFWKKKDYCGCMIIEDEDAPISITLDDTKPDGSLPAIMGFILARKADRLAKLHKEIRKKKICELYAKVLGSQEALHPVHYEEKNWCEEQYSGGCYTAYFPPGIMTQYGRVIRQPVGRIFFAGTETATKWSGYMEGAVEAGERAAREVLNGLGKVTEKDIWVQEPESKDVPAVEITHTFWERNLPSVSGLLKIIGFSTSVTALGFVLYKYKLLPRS
Description: as §1, §2

[4] = target: T3, β-secretase (BACE-1) (Homo sapiens, UniProt P56817); assay: BACE-1 inhibition (β-secretase assay kit, fluorescence); format: biochemical; settings: for remaining activity at 10 µM: read-out: Residual Activity (%) BACE-1; for IC50: reference compounds after preincubation with enzymes for 30 min
T3 construct: purchased
T3 sequence (P56817 46-501): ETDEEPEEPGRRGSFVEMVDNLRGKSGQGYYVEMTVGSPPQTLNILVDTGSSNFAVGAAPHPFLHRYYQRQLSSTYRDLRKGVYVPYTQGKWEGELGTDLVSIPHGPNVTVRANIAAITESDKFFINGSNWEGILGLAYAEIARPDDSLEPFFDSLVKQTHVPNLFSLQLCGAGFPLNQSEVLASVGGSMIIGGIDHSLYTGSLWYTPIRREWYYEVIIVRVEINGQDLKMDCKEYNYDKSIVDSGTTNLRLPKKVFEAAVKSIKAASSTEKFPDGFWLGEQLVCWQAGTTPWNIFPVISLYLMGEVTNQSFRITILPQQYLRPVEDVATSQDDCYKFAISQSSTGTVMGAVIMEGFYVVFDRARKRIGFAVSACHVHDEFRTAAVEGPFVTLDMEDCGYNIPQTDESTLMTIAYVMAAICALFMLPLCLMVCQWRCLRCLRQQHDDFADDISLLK
Description: as §1, §2

[5] = In vitro toxicity, MTT cell viability assay; format: cell-based; settings: African green monkey; for IC50 at 48 h: Vero cells (African green monkey kidney cell line), 1 to 500 µg/mL; for viability at 48 h: Vero cells (kidney cell line), read-out: Percentage of viable cells
Description: (§3) The lead molecules CH4 and CH5 in the current series were further evaluated for their cytotoxic nature and ROS scavenging ability by the previously reported procedure (Supplementary Material).
An in vitro toxicity evaluation of CH4 and CH5 was carried out using an MTT assay. We used the African Green Monkey kidney cell line (Vero) as a valuable in vitro model for basal toxicity studies. To check the toxicity of the tested compounds, the Vero cell line was incubated with different concentrations of CH4 and CH5 (1 to 500 µg/mL), and the relative cell viability was measured after 48 h. […] The result of the cell viability assay was represented as a dose–response curve using the GraphPad Prism 6.0 software (USA). […] The reduction in cell number and also the membrane damage were very evident in treatment with CH4 and CH5 at IC50 and higher concentrations, as analyzed by phase-contrast microscope. These two experiments strongly support that CH4 and CH5 are one hundred times safer than the effective concentration of one micromolar (Figure 3C and Figure 4C). […]
1.2. Cytotoxicity Studies
The cell line of Vero (African green monkey kidney cells) was procured from NCCS, Pune and were grown in liquid medium (DMEM) containing, 100 ug/mL penicillin, 100 µg/mL streptomycin, and 10% Fetal Bovine Serum (FBS) and preserved under an atmosphere of 5% CO2 at 37 °C. The CH4 and CH5 sample was assayed for in vitro cytotoxicity by MTT assay using the cultured Vero cells. Briefly, the cultured Vero cells were produced by cell dissociation with trypsin (trypsinization), collectively in a 15 mL tube. At a density of 1×10^5 cells/mL cells/well (200 µL) the cells were plated for 24-48 hour at 37°C into 96-well tissue culture plate in DMEM medium containing 10 % FBS and 1% antibiotic solution. The wells were washed with sterile Phosphate buffered saline and further allowed to react with varying concen-trations of the CH4 and CH5 sample in a serum free DMEM medium. The samples were triplicated and the cells were kept for incubation at 37°C for 24 h in a humidified 5% CO2 incubator. MTT (20 µL of 5 mg/mL) was added in-to each well after the incubation and the cells were incubated for another 2–4 […]
(§4) h. The end point was determined by the purple precipitation which was clearly seen under an inverted microscope. […] The absorbance at 570 nm was measured using a micro plate reader (Thermo Fisher Scientific, USA). The IC50 value and the percentage cell viability was calculated using GraphPad Prism 8.0 software (USA). […]
(§5) DMEM medium and incubated at 37°C for 24 h. […] After the incubation period, the cells were treated with 100 µM/mL of 30% H2O2 and the production of ROS was evaluated immediately by fluorescence imaging system (ZOE, BIO-

[6] = tested on: Vero cells; assay: ROS assay in H2O2-treated Vero cells; format: cell-based, African Green Monkey; settings: Vero cells treated with H2O2; compounds at IC50 conc. (CH4 198.5 µg/mL, CH5 126.4 µg/mL)
Description: as §3
Our next attempt was to study the effect of CH4 and CH5 on inhibiting the excess reactive oxygen species (ROS) involved in the pathogenesis of neurodegenerative diseases. This ROS causes neuronal damage via oxidative damage in the brain during neurodegenerative diseases. We examined the intracellular ROS generation on Vero cell cultures after exposure to exogenous H2O2. […] Based on this observation, it is understood that the disruption of the balance between pro-oxidant and antioxidant levels can be retained by CH4 and CH5 at IC50 concentrations. […]
as §4, with “microscope. At the end, the medium along with MTT (220 µL) were used for the aspiration of the wells and later washed with 1X PBS (200 µL).” for “microscope.”
as §5

[7] = target: T1, MAO-B; assay: MAO-B inhibitor reversibility analysis by dialysis; settings: for Relative activity, dialyzed (AD): after dialysis; for Relative activity, dialyzed (AD) / Relative activity, undialyzed (AU): CH4 1.68 µM, CH5 0.92 µM, lazabemide […], pargyline 0.28 µM; for Reversibility of MAO-B inhibition: dialysis; for Relative activity, undialyzed (AU): preincubation 30 min
Description: Reversibility patterns were analyzed by comparing the activities of dialyzed (AD) and undialyzed (AU) samples [58].
The relative activities for undialyzed (AU) and dialyzed (AD) samples were compared to determine the reversibility patterns.

[8] = target: T1, MAO-B; assay: MAO-B kinetic study (Lineweaver–Burk and secondary plots); format: biochemical; settings: for Type of MAO-B inhibition: Lineweaver–Burk plots; for Ki: secondary plots of slopes vs. inhibitor concentrations
Description: MAO events were assessed with recombinant MAO-A and MAO-B, as well as the substrates kynuramine (0.06 mM) and benzylamine (0.3 mM). The kinetics of MAO-B were analyzed under 2.4 × Km (i.e., 0.051 mM) of benzylamine. BACE-1 was measured using a β-secretase (BACE-1) assay kit at 320 nm for excitation and 405 nm for emission using a fluorescence spectrometer. […] The IC50 value of CH5 for BACE-1 was also analyzed.
The inhibitory actions of the six molecules against MAO-A, MAO-B, and BACE-1 were first tested at 10 µM. Initially, the IC50 values of the compounds for MAOs were calculated. At three inhibitory concentrations and five substrate concentrations, kinetic tests were conducted on CH4 and CH5, which inhibited MAO-B most potently.
Kinetic experiments were carried out at five concentrations of the substrates and three inhibitor concentrations.

[9] = PAMPA
Description: as §6

Row | SMILES | Papp [1] [×10⁻⁶ cm/s] | remaining activity at 10 µM [2] [%] | remaining activity at 10 µM [3] [%] | remaining activity at 10 µM [4] [%] | IC50 at 48 h [5] [µg/mL] | viability at 48 h ([5]; up to 200 µg/mL) [%] | SI (selectivity index) [2] | IC50 [2] [µM] | Effect on ROS levels [6] | IC50 [3] [µM] | Relative activity, dialyzed (AD) [7] [%] | Reversibility of MAO-B inhibition [7] | Relative activity, undialyzed (AU) [7] [%] | Type of MAO-B inhibition [8] | Ki [8] [nM] | IC50 [4] [µM] | viability at 48 h ([5]; up to 100 times the effective concentration) [%] | Prediction (CNS permeability class) [9]
1 | COc1cc(OC)c(C(=O)/C=C/c2ccc(Cl)cc2)c(OC)c1 [CH1, (E)-3-(4-chlorophenyl)-1-(2,4,6-trimethoxyphenyl)prop-2-en-1-one] | 13.2 ± 0.33 | 70.7 ± 2.16 | 90.1 ± 7.51 | 61.3 ± 0.078 |  |  |  |  |  |  |  |  |  |  |  |  |  | 
2 | COc1cc(OC)c(C(=O)/C=C/c2ccc(Br)cc2)c(OC)c1 [CH2, (E)-3-(4-bromophenyl)-1-(2,4,6-trimethoxyphenyl)prop-2-en-1-one] | 14.1 ± 0.8 | 84.3 ± 3 | 92.4 ± 1.1 | 57.2 ± 0.46 |  |  |  |  |  |  |  |  |  |  |  |  |  | 
3 | COc1cc(OC)c(C(=O)/C=C/c2ccc(F)cc2)c(OC)c1 [CH3, (E)-3-(4-fluorophenyl)-1-(2,4,6-trimethoxyphenyl)prop-2-en-1-one] | 15.3 ± 0.71 | 75.4 ± 0.27 | 94.9 ± 7.19 | 59.7 ± 0.077 |  |  |  |  |  |  |  |  |  |  |  |  |  | 
4 | COc1ccc(C(=O)/C=C/c2ccc(Cl)cc2)c(OC)c1OC [CH4, (E)-3-(4-chlorophenyl)-1-(2,3,4-trimethoxyphenyl)prop-2-en-1-one] | 14.6 ± 0.26 |  | 63.7 ± 1.02 | 54.3 ± 2.2 | 198 (≈ 596 µM) | > 90 | 15.1 | 0.84 ± 0.025 | decrease in ROS levels | 12.7 ± 0.23 | 96.9 | reversible inhibitors | 30.9 | competitive inhibitors | 680 ± 170 | 13.6 ± 0.094 |  | 
5 | COc1ccc(C(=O)/C=C/c2ccc(Br)cc2)c(OC)c1OC [CH5, (E)-3-(4-bromophenyl)-1-(2,3,4-trimethoxyphenyl)prop-2-en-1-one] | 15.7 ± 0.22 |  | 66.7 ± 3.96 | 64.3 ± 0.74 | 126 (≈ 335 µM) |  | 31.3 | 0.46 ± 0.12 | decrease in ROS levels | 14.4 ± 1.1 | 73.8 | reversible inhibitors | 37.2 | competitive inhibitors | 310 ± 14 | 19.8 ± 0.12 | > 90 | 
6 | COc1ccc(C(=O)/C=C/c2ccc(F)cc2)c(OC)c1OC [CH6, (E)-3-(4-fluorophenyl)-1-(2,3,4-trimethoxyphenyl)prop-2-en-1-one] | 15.2 ± 0.26 | 19.6 ± 2.17 | 92.1 ± 0.75 | 66.7 ± 0.45 |  |  |  | 4.17 ± 0.23 |  |  |  |  |  |  |  |  |  | 
7 | CN1C(C(=O)Nc2ccccn2)=C(O)c2ccccc2S1(=O)=O [Piroxicam] |  |  |  |  |  |  |  |  |  |  |  |  |  |  |  |  |  | CNS+/−
